Laboratory results taken from ChEMBL document CHEMBL3638950, “Imidazo[5,1-f][1,2,4]triazines for the treatment of neurological disorders” (2013).

Target: cGMP-dependent 3',5'-cyclic phosphodiesterase (Homo sapiens, UniProt O00408)
Experiment: Inhibition Assay: The activity of the test substances on human full-length PDE2A3 enzyme was determined using the [3H]-cGMP scintillation proximity assay (SPA) modified from the Amersham TRKQ7100 instructions (GE Healthcare, USA).

cGMP-dependent 3',5'-cyclic phosphodiesterase, sequence (O00408 whole entry): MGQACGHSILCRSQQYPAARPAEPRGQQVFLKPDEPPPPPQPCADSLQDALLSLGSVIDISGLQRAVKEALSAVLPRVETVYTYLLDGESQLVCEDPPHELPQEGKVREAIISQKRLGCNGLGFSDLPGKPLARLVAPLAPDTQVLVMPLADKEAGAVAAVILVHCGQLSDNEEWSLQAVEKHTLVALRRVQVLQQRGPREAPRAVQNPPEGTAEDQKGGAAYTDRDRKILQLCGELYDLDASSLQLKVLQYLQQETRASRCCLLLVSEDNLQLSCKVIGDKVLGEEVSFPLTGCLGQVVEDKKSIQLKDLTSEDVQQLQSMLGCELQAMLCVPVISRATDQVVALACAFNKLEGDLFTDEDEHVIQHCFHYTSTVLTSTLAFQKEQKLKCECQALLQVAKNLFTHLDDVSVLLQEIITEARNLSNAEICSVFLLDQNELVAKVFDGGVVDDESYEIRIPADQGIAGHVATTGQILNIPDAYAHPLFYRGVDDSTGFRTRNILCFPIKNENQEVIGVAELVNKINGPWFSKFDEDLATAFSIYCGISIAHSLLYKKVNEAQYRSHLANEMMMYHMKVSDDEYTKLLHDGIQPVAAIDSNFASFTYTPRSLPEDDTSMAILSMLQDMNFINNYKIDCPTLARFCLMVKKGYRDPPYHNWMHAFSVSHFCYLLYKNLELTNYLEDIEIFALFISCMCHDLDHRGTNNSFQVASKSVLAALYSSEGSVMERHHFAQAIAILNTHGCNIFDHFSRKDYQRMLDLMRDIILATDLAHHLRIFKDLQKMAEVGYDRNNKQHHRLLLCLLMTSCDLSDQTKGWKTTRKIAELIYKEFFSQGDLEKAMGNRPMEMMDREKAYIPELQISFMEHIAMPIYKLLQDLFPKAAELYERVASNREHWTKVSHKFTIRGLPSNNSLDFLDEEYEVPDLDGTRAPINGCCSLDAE

Compound: Cc1nc(-c2cnn(C)c2-c2ccc(C(F)(F)F)cc2)c2c(N3CC(F)C3)ncnn12
- IC50: 0.633 nM
